# Measurements taken from patent US10077261B2, “Imidazolin-5-one derivative useful as FASN inhibitors for the treatment of cancer” (Janssen Pharmaceutica NV, priority 2012, dated 2018).
# Key:
# [1] = target: T1, hFASN enzyme (full length) (Homo sapiens, UniProt P49327); experiment: Fatty Acid Synthase (FASN) inhibition scintillation proximity assay; format: biochemical; conditions: for inhibition at 10 µM: read-out: Human FASN % inhibition @ 10 μM, 10 μM test compound; for IC50: read-out: Human FASN pIC50 (converted)
# T1 construct: 10 μL hFASN enzyme (full length, 300 ng, purified in house); made in house
# Procedure, shortened: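 Proximity read-out: hydrophobic ^3H-palmitate formed from ^3H-acetyl-CoA and malonyl-CoA binds streptavidin imaging beads, imaged at 610±20 nm at least 24 h after stopping. Enzyme was in-house purified full-length hFASN, 300 ng, in pH 7.5 phosphate/DTT buffer; compound series 30 μM down to 0.01 μM, normalized to controls, 4-parameter fit.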
# [2] = tested on: A2780 ovarian cells; experiment: A2780 ovarian cell proliferation assay in lipid reduced medium, with palmitate (MTT); format: cell-based; conditions: Homo sapiens, A2780, 96 h; read-out: pIC50 A2780 Ovarian Cell, With Palmitate (converted)
# Procedure, shortened: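 In this palmitate-supplemented format, compound dilutions (30 μM down to 0.01 μM) are added to cells in lipid-reduced serum with 25 μM palmitate, 0.2% fatty-acid-free BSA and 0.25% ethanol. After four days (96 h) MTT absorbance at 544 nm is recorded and fitted by minimum sum of squares.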
# [3] = tested on: A2780 ovarian cells; experiment: A2780 ovarian cell proliferation assay in lipid reduced medium, without palmitate (MTT); format: cell-based; conditions: Homo sapiens, A2780, 96 h; read-out: pIC50 A2780 Ovarian Cell, Without Palmitate (converted)
# [4] = tested on: LNCaP-Vancouver prostate cells; experiment: In vitro LNCaP Vancouver prostate cell proliferation assay in lipid reduced medium; format: cell-based; conditions: read-out: pIC50 LNCaP_Vancouver prostate cell (converted)
# [5] = tested on: PC-3M-Luc-C6 prostate cells; experiment: In vitro PC-3M-Luc-C6 prostate cell proliferation assay in lipid reduced medium; format: cell-based; conditions: 96 h, read-out: pIC50 PC-3M-Luc-C6 prostate cell (converted)
# [6] = target: Fatty Acid Synthase Keto-reductase Domain (FASN KR) (Homo sapiens, UniProt P49327); experiment: Fatty Acid Synthase keto-reductase domain (FASN KR) inhibition, NADPH oxidation at 340 nm
# Fatty Acid Synthase Keto-reductase Domain (FASN KR), sequence (P49327 whole entry, the tested form may be a part): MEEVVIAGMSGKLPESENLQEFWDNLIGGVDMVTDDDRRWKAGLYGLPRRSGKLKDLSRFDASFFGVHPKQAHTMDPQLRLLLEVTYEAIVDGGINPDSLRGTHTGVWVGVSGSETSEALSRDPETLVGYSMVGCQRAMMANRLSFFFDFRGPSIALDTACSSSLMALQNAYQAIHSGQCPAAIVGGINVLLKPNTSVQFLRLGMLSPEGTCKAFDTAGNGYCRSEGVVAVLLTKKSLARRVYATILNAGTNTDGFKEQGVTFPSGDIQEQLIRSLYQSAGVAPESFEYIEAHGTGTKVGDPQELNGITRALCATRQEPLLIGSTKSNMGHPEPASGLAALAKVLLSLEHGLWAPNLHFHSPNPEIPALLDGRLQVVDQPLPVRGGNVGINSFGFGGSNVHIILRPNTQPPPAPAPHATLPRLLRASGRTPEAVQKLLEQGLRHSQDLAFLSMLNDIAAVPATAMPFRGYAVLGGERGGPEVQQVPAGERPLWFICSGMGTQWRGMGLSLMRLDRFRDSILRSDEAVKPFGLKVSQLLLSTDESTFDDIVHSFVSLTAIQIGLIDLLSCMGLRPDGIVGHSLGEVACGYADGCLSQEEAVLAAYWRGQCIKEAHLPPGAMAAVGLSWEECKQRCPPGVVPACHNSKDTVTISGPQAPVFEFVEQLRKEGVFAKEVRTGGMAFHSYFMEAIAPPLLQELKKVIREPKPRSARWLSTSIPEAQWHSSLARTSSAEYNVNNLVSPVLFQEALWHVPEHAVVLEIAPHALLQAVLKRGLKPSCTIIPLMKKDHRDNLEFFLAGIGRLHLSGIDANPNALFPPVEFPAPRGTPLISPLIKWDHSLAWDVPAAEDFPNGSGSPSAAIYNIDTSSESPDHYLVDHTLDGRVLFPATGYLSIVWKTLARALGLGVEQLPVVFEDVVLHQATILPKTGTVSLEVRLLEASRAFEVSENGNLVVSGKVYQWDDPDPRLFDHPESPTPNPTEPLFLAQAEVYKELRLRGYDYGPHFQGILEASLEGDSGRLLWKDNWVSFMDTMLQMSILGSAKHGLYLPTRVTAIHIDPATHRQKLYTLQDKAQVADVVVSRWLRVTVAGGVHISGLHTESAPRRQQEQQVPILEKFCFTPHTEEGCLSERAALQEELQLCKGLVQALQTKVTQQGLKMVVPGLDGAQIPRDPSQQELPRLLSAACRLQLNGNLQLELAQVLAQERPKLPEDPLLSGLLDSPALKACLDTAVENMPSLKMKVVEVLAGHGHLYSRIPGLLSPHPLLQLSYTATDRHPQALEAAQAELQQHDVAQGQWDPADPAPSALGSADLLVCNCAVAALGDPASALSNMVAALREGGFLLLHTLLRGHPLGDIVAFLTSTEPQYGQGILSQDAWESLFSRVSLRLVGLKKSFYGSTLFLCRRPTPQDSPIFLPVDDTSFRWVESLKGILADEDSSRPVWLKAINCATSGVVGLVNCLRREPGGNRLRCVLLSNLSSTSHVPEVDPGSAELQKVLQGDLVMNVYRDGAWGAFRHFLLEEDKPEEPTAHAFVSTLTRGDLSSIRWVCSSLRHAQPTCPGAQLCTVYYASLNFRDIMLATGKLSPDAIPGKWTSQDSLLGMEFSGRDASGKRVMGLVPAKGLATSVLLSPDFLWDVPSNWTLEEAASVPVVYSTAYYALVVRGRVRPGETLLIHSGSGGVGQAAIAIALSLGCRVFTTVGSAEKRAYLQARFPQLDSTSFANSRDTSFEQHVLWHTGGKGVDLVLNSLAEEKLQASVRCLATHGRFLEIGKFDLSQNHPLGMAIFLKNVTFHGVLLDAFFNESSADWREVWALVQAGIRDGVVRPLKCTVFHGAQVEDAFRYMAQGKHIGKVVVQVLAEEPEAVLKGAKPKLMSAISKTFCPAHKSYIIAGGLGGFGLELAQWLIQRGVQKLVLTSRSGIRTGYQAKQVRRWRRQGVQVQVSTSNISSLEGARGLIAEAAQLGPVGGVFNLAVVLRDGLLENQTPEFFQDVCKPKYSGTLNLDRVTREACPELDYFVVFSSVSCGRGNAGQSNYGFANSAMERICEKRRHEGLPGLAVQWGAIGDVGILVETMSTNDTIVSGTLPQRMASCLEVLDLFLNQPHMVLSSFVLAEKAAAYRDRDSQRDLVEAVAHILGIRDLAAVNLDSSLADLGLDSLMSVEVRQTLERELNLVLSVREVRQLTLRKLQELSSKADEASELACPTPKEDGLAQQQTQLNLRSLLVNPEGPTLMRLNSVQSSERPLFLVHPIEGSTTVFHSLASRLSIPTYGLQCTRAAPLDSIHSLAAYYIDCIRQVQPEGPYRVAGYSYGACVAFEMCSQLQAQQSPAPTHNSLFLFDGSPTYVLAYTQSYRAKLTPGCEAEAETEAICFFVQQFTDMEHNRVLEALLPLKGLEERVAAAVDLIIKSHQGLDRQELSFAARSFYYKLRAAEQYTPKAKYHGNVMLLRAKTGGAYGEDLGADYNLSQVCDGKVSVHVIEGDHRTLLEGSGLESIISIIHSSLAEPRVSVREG
# Experimental: After 20 minutes incubation at room temperature the plate was measured again (T2).
# The decrease in absorbance was calculated as (Absorbance before incubation T1)−(Absorbance following incubation T2).
# A plot of Controlmin versus test compound concentration was fitted to a 4-parameter logistic curve using a non-linear least squares regression method.
# T1 sequence (P49327 whole entry): as the sequence (P49327 whole entry, the tested form may be a part) above
inhibition at 10 µM [1] [%],IC50 [1] [nM],IC50 [2] [nM],IC50 [3] [nM],IC50 [4] [nM],IC50 [5] [nM],IC50 [6] [nM],Compound
104,32.4,8130,10.5,138,34.7,158,"CC(C)n1cc(-c2ccc(-c3ccc(C4=NC5(CC5)C(=O)N4CC4CN(C(=O)C5CC5)C4)c(F)c3)cc2)cn1 [compound 327, 6-((1-(cyclopropanecarbonyl)azetidin-3-yl)methyl)-5-(3-fluoro-4′-(1-isopropyl-1H-pyrazol-4-yl)-[1,1′-biphenyl]-4-yl)-4,6-diazaspiro[2.4]hept-4-en-7-one]"
98,31.6,10000,5.13,53.7,16.2,79.4,"O=C(C1CC1)N1CC(CN2C(=O)C3(CC3)N=C2c2ccc(-c3ccc(-c4cnn(C5CC5)c4)cc3)cc2F)C1 [compound 328, 6-((1-(cyclopropanecarbonyl)azetidin-3-yl)methyl)-5-(4′-(1-cyclopropyl-1H-pyrazol-4-yl)-3-fluoro-[1,1′-biphenyl]-4-yl)-4,6-diazaspiro[2.4]hept-4-en-7-one]"
100,66.1,5620,69.2,617,148,245,CC(C)n1cc(-c2ccc(-c3ccc(C4=NC5(CC5)C(=O)N4CC4CN(C(=O)C5CC5)C4)cc3)cc2)cn1 [compound 331]
100,18.6,4170,12.3,107,12.3,60.3,"COc1ccc2cc(-c3ccc(C4=NC5(CC5)C(=O)N4CC4CN(C(=O)C5(C)CC5)C4)c(C)c3)ccc2c1 [compound 332, 5-(4-(6-methoxynaphthalen-2-yl)-2-methylphenyl)-6-((1-(1-methylcyclopropanecarbonyl)azetidin-3-yl)methyl)-4,6-diazaspiro[2.4]hept-4-en-7-one]"
98,55,> 10000,~33.1,537,~339,178,"Cc1cc(-c2ccc(-c3cnn(C)c3)cc2)ccc1C1=NC2(CC2)C(=O)N1CC1CN(C(=O)C2CC2)C1 [compound 333, 6-((1-(cyclopropanecarbonyl)azetidin-3-yl)methyl)-5-(3-methyl-4′-(1-methyl-1H-pyrazol-4-yl)-[1,1′-biphenyl]-4-yl)-4,6-diazaspiro[2.4]hept-4-en-7-one]"
97,21.9,6920,24,162,37.2,43.7,"Cc1ccc2cc(-c3ccc(C4=NC5(CC5)C(=O)N4CC4CN(C(=O)C5(C)CC5)C4)c(C)c3)ccc2c1 [compound 334, 5-(2-methyl-4-(6-methylnaphthalen-2-yl)phenyl)-6-((1-(1-methylcyclopropanecarbonyl)azetidin-3-yl)methyl)-4,6-diazaspiro[2.4]hept-4-en-7-one]"
105,64.6,> 10000,138,603,~115,166,"Cc1cc(-c2ccc3cnn(C)c3c2)ccc1C1=NC2(CC2)C(=O)N1CC1CN(C(=O)C2(C)CC2)C1 [compound 335, 5-(2-methyl-4-(1-methyl-1H-indazol-6-yl)phenyl)-6-((1-(1-methylcyclopropanecarbonyl)azetidin-3-yl)methyl)-4,6-diazaspiro[2.4]hept-4-en-7-one]"
105,36.3,6920,38,79.4,20.4,79.4,"Cc1cc(-c2ccc(-c3cnn(C4CC4)c3)cc2)ccc1C1=NC2(CC2)C(=O)N1CC1CN(C(=O)C2(C)CC2)C1 [compound 337, 5-(4′-(1-cyclopropyl-1H-pyrazol-4-yl)-3-methyl-[1,1′-biphenyl]-4-yl)-6-((1-(1-methylcyclopropanecarbonyl)azetidin-3-yl)methyl)-4,6-diazaspiro[2.4]hept-4-en-7-one]"
106,43.7,~4270,21.9,126,19.1,148,"Cc1cc(-c2ccc(-c3cnn(C4CCC4)c3)cc2)ccc1C1=NC2(CC2)C(=O)N1CC1CN(C(=O)C2(C)CC2)C1 [compound 338, 5-(4′-(1-cyclobutyl-1H-pyrazol-4-yl)-3-methyl-[1,1′-biphenyl]-4-yl)-6-((1-(1-methylcyclopropanecarbonyl)azetidin-3-yl)methyl)-4,6-diazaspiro[2.4]hept-4-en-7-one]"
95,30.9,~2820,28.8,324,31.6,47.9,"O=C(C1CC1)N1CC(CN2C(=O)C3(CC3)N=C2c2ccc(-c3ccc4cc(Cl)cnc4c3)cc2)C1 [compound 339, 5-(4-(3-chloroquinolin-7-yl)phenyl)-6-((1-(cyclopropanecarbonyl)azetidin-3-yl)methyl)-4,6-diazaspiro[2.4]hept-4-en-7-one]"
101,28.8,6030,15.5,93.3,18.2,38,"Cc1cc(-c2ccc3cc(Cl)cnc3c2)ccc1C1=NC2(CC2)C(=O)N1CC1CN(C(=O)C2(C)CC2)C1 [compound 340, 5-(4-(3-chloroquinolin-7-yl)-2-methylphenyl)-6-((1-(1-methylcyclopropanecarbonyl)azetidin-3-yl)methyl)-4,6-diazaspiro[2.4]hept-4-en-7-one]"
102,64.6,> 6170,132,525,126,209,"O=C(C1CC1)N1CC[C@@H](CN2C(=O)C3(CC3)N=C2c2ccc(-c3ccc4[nH]ccc4c3)cn2)C1 [compound 341, (R)-5-(5-(1H-indol-5-yl)pyridin-2-yl)-6-((1-(cyclopropanecarbonyl)pyrrolidin-3-yl)methyl)-4,6-diazaspiro[2.4]hept-4-en-7-one]"
106,69.2,> 10000,1860,1620,~891,195,"O=C(C1CC1)N1CC[C@@H](CN2C(=O)C3(CC3)N=C2c2ccc(-c3ccc4sccc4c3)cn2)C1 [compound 342, (R)-5-(5-(benzo[b]thiophen-5-yl)pyridin-2-yl)-6-((1-(cyclopropanecarbonyl)pyrrolidin-3-yl)methyl)-4,6-diazaspiro[2.4]hept-4-en-7-one]"
97,49,> 10000,~17,43.7,22.4,53.7,"O=C(C1CC1)N1CC(CN2C(=O)C3(CC3)N=C2c2ccc(-c3ccc4cccnc4c3)cc2F)C1 [compound 346, 6-((1-(cyclopropanecarbonyl)azetidin-3-yl)methyl)-5-(2-fluoro-4-(quinolin-7-yl)phenyl)-4,6-diazaqspiro[2.4]hept-4-en-7-one]"
